ChEMBL document CHEMBL1201862, “PubChem BioAssay data set” (2004)
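Tested at 5 concentrations; 48 h exposure; 96-well plates; endpoints linearly interpolated, else capped at highest concentration. GI50: concentration for 50% inhibition of growth.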 The source made the active and inactive calls. Cut-off read from the data, not from the text of the source: active = GI50 up to about 1.1 µM and inactive = higher.

Assays:
Assay in all cases: inhibition of tumour cell growth, NCI panel, 48 h
[1] = system: HOP-92
[2] = system: SF-295
[3] = system: K562
[4] = system: OVCAR-5
[5] = system: SW-620
[6] = system: SK-MEL-5
[7] = system: HT-29
[8] = system: ACHN
[9] = system: A549
[10] = system: HOP-62
[11] = system: MDA-MB-435
[12] = system: COLO 205
[13] = system: T47D
[14] = system: RPMI-8226
[15] = system: TK-10
[16] = system: MDA-MB-231
[17] = system: MDA-N
[18] = system: SNB-75
[19] = system: SK-MEL-28

Row | Compound | GI50 [1] | GI50 [2] | GI50 [3] | GI50 [4] | GI50 [5] | GI50 [6] | GI50 [7] | GI50 [8] | GI50 [9] | GI50 [10] | GI50 [11] | GI50 [12] | GI50 [13] | GI50 [14] | GI50 [15] | GI50 [16] | GI50 [17] | GI50 [18] | GI50 [19]
1 | CN1CC2CN(Cc3ccccc3)CCN2c2cccnc21 (stereo unspecified) | 47.4 µM (inactive) | 89.5 µM (inactive) | 29.2 µM (inactive) | > 100 µM (inactive) | 35.2 µM (inactive) | 31.1 µM (inactive) | 29.1 µM (inactive) | 45.2 µM (inactive) | > 100 µM (inactive) | > 100 µM (inactive) | 30.5 µM (inactive) | 36.6 µM (inactive) | 53.7 µM (inactive) | 27.5 µM (inactive) | > 100 µM (inactive) | 97.1 µM (inactive) | 38.6 µM (inactive) | 41.3 µM (inactive) | –
2 | C=C1CC[C@@]2(OC1)OC1C[C@H]3[C@@H]4CC=C5C[C@@H](O)CC(OC6OCC(OC(=O)[C@@H](O)[C@@H](C)CC)C(OC(C)=O)C6OC6OC(C)C(O)C(O)C6O)[C@]5(C)[C@H]4CC[C@]3(C)C1[C@@H]2C (stereo partly specified) | 3.3 µM (inactive) | 1.75 µM (inactive) | 2.01 µM (inactive) | 2.04 µM (inactive) | 2.1 µM (inactive) | 1.97 µM (inactive) | 2.82 µM (inactive) | 2.28 µM (inactive) | 2.21 µM (inactive) | – | 1.76 µM (inactive) | 2.11 µM (inactive) | 4.78 µM (inactive) | 2.09 µM (inactive) | 1.88 µM (inactive) | 1.75 µM (inactive) | 1.92 µM (inactive) | 2 µM (inactive) | 2.2 µM (inactive)
3 | COc1ccc2nc3cc(Cl)ccc3c(NCCCCCC(=O)NC(COc3cnc4c(ccc5cccnc54)c3)COc3cnc4c(ccc5cccnc54)c3)c2c1 | > 100 µM (inactive) | 20.8 µM (inactive) | 3.43 µM (inactive) | 24.1 µM (inactive) | 10.5 µM (inactive) | – | 5.45 µM (inactive) | 36.6 µM (inactive) | 29.1 µM (inactive) | 15.7 µM (inactive) | 18.5 µM (inactive) | 2.79 µM (inactive) | 7.29 µM (inactive) | 5.65 µM (inactive) | 27.5 µM (inactive) | 6.34 µM (inactive) | 19 µM (inactive) | 0.0313 µM (active) | 17.6 µM (inactive)
4 | OCC1OC(O[C@H]2CN3[C@H](O)[C@@H](O)[C@H](O)[C@H]3C2O)C(O)C(O)C1O (stereo partly specified) | > 100 µM (inactive) | > 100 µM (inactive) | > 100 µM (inactive) | > 100 µM (inactive) | > 100 µM (inactive) | > 100 µM (inactive) | > 100 µM (inactive) | > 100 µM (inactive) | > 100 µM (inactive) | > 100 µM (inactive) | > 100 µM (inactive) | > 100 µM (inactive) | > 100 µM (inactive) | > 100 µM (inactive) | > 100 µM (inactive) | > 100 µM (inactive) | > 100 µM (inactive) | – | > 100 µM (inactive)
5 | CCn1c(=O)c2c3ccc(OC(C)=O)cc3[nH]c2c2ccc(OC(C)=O)cc21 | 43.5 µM (inactive) | 36.1 µM (inactive) | 24 µM (inactive) | > 100 µM (inactive) | 30.7 µM (inactive) | 30.8 µM (inactive) | 43.3 µM (inactive) | 31.9 µM (inactive) | 64.7 µM (inactive) | 58.1 µM (inactive) | 41 µM (inactive) | 30.9 µM (inactive) | 18.5 µM (inactive) | – | 51.5 µM (inactive) | 33.1 µM (inactive) | 35.2 µM (inactive) | 10.1 µM (inactive) | 49.2 µM (inactive)
6 | NC1CCCCC1NCCNC1CCCCC1N (stereo unspecified) | 41.5 µM (inactive) | > 100 µM (inactive) | 49.2 µM (inactive) | 20.9 µM (inactive) | 41.6 µM (inactive) | > 100 µM (inactive) | 17.7 µM (inactive) | > 100 µM (inactive) | 28.8 µM (inactive) | 53.7 µM (inactive) | > 100 µM (inactive) | 15.9 µM (inactive) | > 100 µM (inactive) | > 100 µM (inactive) | > 100 µM (inactive) | > 100 µM (inactive) | > 100 µM (inactive) | – | > 100 µM (inactive)
7 | Cc1cccc(/C=N/NC(=S)N2CCCC2)n1 | 1.65 µM (inactive) | 0.266 µM (active) | 0.2 µM (active) | 0.132 µM (active) | 0.188 µM (active) | 0.259 µM (active) | 0.0528 µM (active) | 0.202 µM (active) | 0.514 µM (active) | 0.209 µM (active) | 0.493 µM (active) | 0.325 µM (active) | < 0.0306 µM (active) | – | 0.177 µM (active) | 0.133 µM (active) | 0.417 µM (active) | 2.95 µM (inactive) | 1.02 µM (active)
